System: whole cells (NMuLi, C2Cl2, and L6 cells, isolated cardiomyocytes, human primary fibroblasts)
Assay: Oxygen consumption rate (OCR) in whole cells, Seahorse XF-24 Flux Analyzer
Assay type: cell-based
Conditions: cell type for Table 1 not stated, read-out: OCR Activity (increase in OCR), binned EC50
Protocol: Biological activities of the compounds synthesized is determined by determining increase in oxygen consumption rate (OCR).
Oxygen consumption rate (OCR) in whole cells is measured in general accordance with the method of Kenwood B M et al. (Mol. Met. (2014) 3: 114-123).
OCR is measured using a Seahorse XF-24 Flux Analyzer (Seahorse Biosciences, North Billerica, Mass.). NMuLi, C2Cl2, and L6 cells are seeded in a Seahorse 24-well tissue culture plate at a density of 3.5×10^4 cells/well, isolated cardiomyocytes at a density of 4×10^4 cells/well, and human primary fibroblasts at a density of 1.1×10^4 cells/well. The cells are then allowed to adhere for 24 h. Prior to the assay, the media is changed to unbuffered DMEM containing pyruvate and glutamine (Gibco #12800-017, pH=7.4 at 37° C.) and the cells are equilibrated for 30 mins at 37° C. Compounds are injected during the assay and OCR is measured using 2 min measurement periods.
2-3 wells are used per condition and averaged over three plates (n=6-9). Statistical significance is determined by two-way ANOVA with Bonfenoni's posttest.
Activities are reported as binned EC50 values: A=5 μM or less; B=>5 to 20 μM; C=over 20 μM; NA=no effect.

Row | SMILES | EC50
1 | COc1nc2[nH]c(C(F)(F)F)nc2nc1Nc1ccc(OC(F)(F)F)cc1 [Compound 2-1, 6-methoxy-N-(4-(trifluoromethoxy)phenyl)-2-(trifluoromethyl)-1H-imidazo[4,5-b]pyrazin-5-amine] | > 20 µM
2 | CCCCc1ccc(Nc2nc3nc(C(F)(F)F)[nH]c3nc2OC)cc1 [Compound 2-2, 6-methoxy-N-(4-(N-butyl)phenyl)-2-(trifluoromethyl)-1H-imidazo[4,5-b]pyrazin-5-amine] | 5 to 20 µM
3 | COc1nc2[nH]c(C(F)(F)F)nc2nc1Nc1cc(C(F)(F)F)ccc1F [Compound 2-3, 6-methoxy-N-(2-fluoro-5-(trifluoromethyl)phenyl)-2-(trifluoromethyl)-1H-imidazo[4,5-b]pyrazin-5-amine] | > 20 µM
4 | COc1nc2[nH]c(C(F)(F)F)nc2nc1Nc1cccc(OC(F)(F)F)c1 [Compound 2-4, 6-methoxy-N-(3-(trifluoromethoxy)phenyl)-2-(trifluoromethyl)-1H-imidazo[4,5-b]pyrazin-5-amine] | 5 to 20 µM
5 | COc1nc2[nH]c(C(F)(F)F)nc2nc1Nc1cc(C(F)(F)F)ccc1C [Compound 2-5, 6-methoxy-N-(2-methyl-5-(trifluoromethyl)phenyl)-2-(trifluoromethyl)-1H-imidazo[4,5-b]pyrazin-5-amine] | 5 to 20 µM
6 | COc1nc2[nH]c(C(F)(F)F)nc2nc1Nc1cccc(C(F)(F)F)c1F [Compound 2-6, 6-methoxy-N-(2-fluoro-3-(trifluoromethyl)phenyl)-2-(trifluoromethyl)-1H-imidazo[4,5-b]pyrazin-5-amine] | ≤ 5 µM
7 | COc1nc2[nH]c(C(F)(F)F)nc2nc1Nc1cc(C(F)(F)F)cc(C(F)(F)F)c1 [Compound 2-8, 6-methoxy-(3,5-bis(trifluoromethyl)phenyl)-2-(trifluoromethyl)-1H-imidazo[4,5-b]pyrazin-5-amine] | 5 to 20 µM
8 | COc1nc2[nH]c(C(F)(F)F)nc2nc1Nc1ccccc1F [Compound 2-9, 6-methoxy-(2-fluorophenyl)-2-(trifluoromethyl)-1H-imidazo[4,5-b]pyrazin-5-amine] | 5 to 20 µM
9 | COc1nc2[nH]c(C(F)(F)F)nc2nc1Nc1ccc(OC(F)(F)F)c(F)c1 [Compound 2-13, 6-methoxy-N-(3-fluoro-4-(trifluoromethoxy)phenyl)-2-(trifluoromethyl)-1H-imidazo[4,5-b]pyrazin-5-amine] | 5 to 20 µM
10 | COc1nc2[nH]c(C(F)(F)F)nc2nc1Nc1ccc(C(F)(F)F)cc1F [Compound 2-14, 6-methoxy-N-(2-fluoro-4-(trifluoromethyl)phenyl)-2-(trifluoromethyl)-1H-imidazo[4,5-b]pyrazin-5-amine] | ≤ 5 µM
11 | COc1nc2[nH]c(C(F)(F)F)nc2nc1Nc1cc(F)cc(F)c1 [Compound 2-15, 6-methoxy-N-(3,5-difluorophenyl)-2-(trifluoromethyl)-1H-imidazo[4,5-b]pyrazin-5-amine] | > 20 µM
12 | COc1nc2[nH]c(C(F)(F)F)nc2nc1Nc1cccc(F)c1F [Compound 2-16, 6-methoxy-N-(2,3-difluorophenyl)-2-(trifluoromethyl)-1H-imidazo[4,5-b]pyrazin-5-amine] | 5 to 20 µM
13 | COc1nc2[nH]c(C(F)(F)F)nc2nc1Nc1ccccc1C(F)(F)F [Compound 2-17] | ≤ 5 µM
14 | COc1nc2[nH]c(C(F)(F)F)nc2nc1Nc1ccc(-c2ccccc2)cc1 [Compound 2-18, N-([1,1′-biphenyl]-4-yl)-6-methoxy-2-(trifluoromethyl)-1H-imidazo[4,5-b]pyrazin-5-amine] | > 20 µM
15 | COc1nc2[nH]c(C(F)(F)F)nc2nc1Nc1ccc(C(C)(C)C)cc1 [Compound 2-19, 6-methoxy-N-(4-(tert-butyl)phenyl)-2-(trifluoromethyl)-1H-imidazo[4,5-b]pyrazin-5-amine] | 5 to 20 µM
16 | COc1nc2[nH]c(C(F)(F)F)nc2nc1Nc1ccc2ccccc2c1 [Compound 2-20, 6-methoxy-N-(naphthalen-2-yl)-2-(trifluoromethyl)-1H-imidazo[4,5-b]pyrazin-5-amine] | 5 to 20 µM
17 | COc1nc2[nH]c(C(F)(F)F)nc2nc1Nc1ccc(C(F)(F)F)cc1 [Compound 2-22, 6-methoxy-N-(4-(trifluoromethyl)phenyl)-2-(trifluoromethyl)-1H-imidazo[4,5-b]pyrazin-5-amine] | 5 to 20 µM
18 | COc1nc2[nH]c(C(F)(F)F)nc2nc1Nc1ccc(C(F)(F)F)c(F)c1 [Compound 2-23, 6-methoxy-N-(3-fluoro-4-(trifluoromethyl)phenyl)-2-(trifluoromethyl)-1H-imidazo[4,5-b]pyrazin-5-amine] | > 20 µM

Row | SMILES | EC50
19 | COc1nc2[nH]c(C(F)(F)F)nc2nc1Nc1ccc(Cl)cc1 [Compound 2-26, 6-methoxy-N-(4-chlorophenyl)-2-(trifluoromethyl)-1H-imidazo[4,5-b]pyrazin-5-amine] | 5 to 20 µM
20 | COc1nc2[nH]c(C(F)(F)F)nc2nc1Nc1ccc(I)cc1 [Compound 2-30, 6-methoxy-N-(4-iodophenyl)-2-(trifluoromethyl)-1H-imidazo[4,5-b]pyrazin-5-amine] | 5 to 20 µM
21 | COc1nc2[nH]c(C(F)(F)F)nc2nc1Nc1cccc(I)c1 [Compound 2-31, 6-methoxy-N-(3-iodophenyl)-2-(trifluoromethyl)-1H-imidazo[4,5-b]pyrazin-5-amine] | 5 to 20 µM
22 | COc1nc2[nH]c(C(F)(F)F)nc2nc1Nc1cccc(C(F)(F)F)c1 [Compound 2-32, 6-methoxy-N-(3-(trifluoromethyl)phenyl)-2-(trifluoromethyl)-1H-imidazo[4,5-b]pyrazin-5-amine] | 5 to 20 µM
23 | COc1nc2[nH]c(C(F)(F)F)nc2nc1Nc1ccc(C(C)(C)C)cc1F [Compound 2-33, 6-methoxy-N-(2-fluoro-4-(tert-butyl)phenyl)-2-(trifluoromethyl)-1H-imidazo[4,5-b]pyrazin-5-amine] | 5 to 20 µM
24 | COc1nc2[nH]c(C(F)(F)C(F)(F)F)nc2nc1Nc1cccc(C(F)(F)F)c1F [Compound 2-34] | 5 to 20 µM
25 | CCCCOc1nc2[nH]c(C(F)(F)F)nc2nc1Nc1ccc(OC(F)(F)F)cc1 [Compound 2-35, 6-butoxy-N-(4-(trifluoromethoxy)phenyl)-2-(trifluoromethyl)-1H-imidazo[4,5-b]pyrazin-5-amine] | > 20 µM
26 | FC(F)(F)COc1nc2[nH]c(C(F)(F)F)nc2nc1Nc1ccc(OC(F)(F)F)cc1 [Compound 2-36, 6-(2,2,2-trifluoroethoxy)-N-(4-(trifluoromethoxy)phenyl)-2-(trifluoromethyl)-1H-imidazo[4,5-b]pyrazin-5-amine] | ≤ 5 µM
27 | CCOc1nc2[nH]c(C(F)(F)F)nc2nc1Nc1ccc(OC(F)(F)F)cc1 [Compound 2-37, 6-ethoxy-N-(4-(trifluoromethoxy)phenyl)-2-(trifluoromethyl)-1H-imidazo[4,5-b]pyrazin-5-amine] | > 20 µM
28 | CCOc1nc2[nH]c(C(F)(F)F)nc2nc1Nc1ccc(OC(F)(F)F)cc1F [Compound 2-38, 6-ethoxy-N-(2-fluoro-4-(trifluoromethoxy)phenyl)-2-(trifluoromethyl)-1H-imidazo[4,5-b]pyrazin-5-amine] | 5 to 20 µM
29 | CCCOc1nc2[nH]c(C(F)(F)F)nc2nc1Nc1ccc(OC(F)(F)F)cc1F [Compound 2-39, 6-propoxy-N-(2-fluoro-4-(trifluoromethoxy)phenyl)-2-(trifluoromethyl)-1H-imidazo[4,5-b]pyrazin-5-amine] | 5 to 20 µM
30 | COc1nc2[nH]c(C(F)(F)F)nc2nc1Oc1ccc(C(F)(F)F)cc1 [Compound 2-40, 6-methoxy-2-(trifluoromethyl)-5-(4-(trifluoromethyl)phenoxy)-1H-imidazo[4,5-b]pyrazine] | ≤ 5 µM
31 | COc1nc2[nH]c(C(F)(F)F)nc2nc1Nc1ccc(OC(F)(F)F)cc1I [Compound 2-41, N-(2-iodo-4-(trifluoromethoxy)phenyl)-6-methoxy-2-(trifluoromethyl)-1H-imidazo[4,5-b]pyrazin-5-amine] | 5 to 20 µM
32 | COc1nc2[nH]c(C(F)(F)F)nc2nc1Nc1ccc(OC(F)(F)F)cc1Cl [Compound 2-42, N-(2-chloro-4-(trifluoromethoxy)phenyl)-6-methoxy-2-(trifluoromethyl)-1H-imidazo[4,5-b]pyrazin-5-amine] | 5 to 20 µM
33 | COc1nc2[nH]c(C(F)(F)F)nc2nc1Nc1ccc(OC(F)(F)F)c(Cl)c1 [Compound 2-43, N-(3-chloro-4-(trifluoromethoxy)phenyl)-6-methoxy-2-(trifluoromethyl)-1H-imidazo[4,5-b]pyrazin-5-amine] | > 20 µM
34 | COc1nc2[nH]c(C(F)(F)F)nc2nc1Nc1ccc(OC(F)(F)F)c(Br)c1 [Compound 2-44, N-(3-bromo-4-(trifluoromethoxy)phenyl)-6-methoxy-2-(trifluoromethyl)-1H-imidazo[4,5-b]pyrazin-5-amine] | > 20 µM
35 | CC(C)Oc1nc2nc(C(F)(F)F)[nH]c2nc1Nc1ccc(C(F)(F)F)cc1 [Compound 2-45, 5-isopropoxy-2-(trifluoromethyl)-N-(4-(trifluoromethyl)phenyl)-1H-imidazo[4,5-b]pyrazin-6-amine] | > 20 µM
36 | Fc1ccccc1Oc1nc2nc(C(F)(F)F)[nH]c2nc1Nc1ccc(C(F)(F)F)cc1 [Compound 2-46, 5-(2-fluorophenoxy)-2-(trifluoromethyl)-N-(4-(trifluoromethyl)phenyl)-1H-imidazo[4,5-b]pyrazin-6-amine] | 5 to 20 µM
